The conditions of this data set: 298.15 K; 101.33 kPa; Liquid; Vibrating tube method.

± gives the expanded uncertainty stated by the source.

In general, mass density refers to the mass of a sample divided by its volume.

Turning to `Clc1cccc(Cl)c1` [1,3-dichlorobenzene], the mass density turned out to be 1282.87 ± 0.61 kg/m3.

Turning to `CCCCCCCl` [1-chlorohexane], the mass density is reported as 873.38 ± 0.3 kg/m3.

Consider `c1ccccc1` [benzene], for which the mass density was 873.45 ± 0.11 kg/m3.

Values taken from the NIST ThermoML archive (doi:10.1016/j.jct.2013.12.024).
